# Test results reported in patent US20250339631A1, “CONTROLLED RELEASE OF […] A SOURCE MATERIAL STORED OVER TIME” (Syqe Medical Ltd., priority 2022, published 2025).
# Assays:
# [1] = Stability of ground cannabis in Syqe cartridges stored at 30° C.; format: physicochemical; conditions: 30° C.±2° C., 65% RH, baseline to 6 months; one-way ANOVA
# Protocol: Additionally, to assess the effects of a warmer temperature on MC, Syqe cartridges were stored post-production at an elevated temperature and humidity of 30° C.±2° C. (65% RH+5% RH). Three different growing batches were analyzed at baseline and at 1, 2, 4 and 6 months of storage.
# (§1) Analysis of cannabis inflorescences for the main phytocannabinoids (CBDA, CBD, CBGA, CBN, THCA and THC) was performed as follows: 100 mg of ground Cannabis inflorescences were weighed in duplicate from one container and extracted with 25 mL methanol then sonicated for 40 min and centrifuged at 3000 rpm for 5 min. All samples were filtered through a 0.22 μm PP filter vail prior to analysis. The dilution and quantitation were preformed corresponding to calibration curves. The main six phytocannabinoids were analyzed by ultra-high-performance liquid chromatography (UHPLC: […]) system with a refrigerated auto-sampler, thermostatic column oven and ultraviolet detector, Waters ACQUITY UPLC H-Class. Chromatographic separation was achieved using UPLC column Waters Acquity C18, 1.7 μm particles, 2.1×150 mm maintained at 30° C. The phytocannabinoids were separated using a gradient elution with mobile phases of 0.1% (v/v) formic acid in double-distilled water (phase A) and acetonitrile (phase B), respectively. A constant flow rate of 0.4 mL/min was employed throughout. The gradient profile varied from 70% to 100% B in 10.5 min, held for 0.5 min in these conditions and then returned to the initial conditions.
# (§2) For THC and CBD, the concentrations of the acid and its neutral counterpart were summed and reported as the total content. For example, the concentration of total THC […] was calculated as: Total THC=THCA * 0.877+THC, with 0.877 being the molar ratio between the two compounds that corrects for a change in the mass of THCA as a result of the loss of CO2 (decarboxylation). This is shown in FIG. 7A: “U-HPLC analysis of the Bedrocan cultivar”.
# (§3) R software (V.1.1.463) with tidyverse (17) package was used to analyze changes in outcome measures by one way ANOVA test, using Fisher's exact test analysis. All analyses were followed by a Tukey post-hoc test for multiple comparison. Data are presented as Mean±95% confidence interval (CI). Differences were considered significant at the p<0.05 level.
# [2] = Stability of ground MC powder stored under refrigeration, pre-packaging; format: physicochemical; conditions: 5° C.±2° C., baseline to 3 months post grinding; one-way ANOVA
# Protocol: In the described experiment, Bedrocan strain MC powder was stored at 5° C.±2° C. with up to 12% relative humidity (RH) in a polypropylene container, sealed in an aluminum foil pouch (Oliver-Tolas Healthcare Packaging B.V.; Venray, Netherlands). In order to assess its stability during the handling and hold time, samples were taken from three separate growing batches and assayed at baseline and at 1, 2 and 3 months post grinding. Each sample was assayed for loss on drying (LOD), and of the concentrations of the major phytocannabinoids (CBDA, CBD, CBGA, CBN, THCA and THC).
# as §1, §2, §3
# [3] = Long-term stability of ground cannabis packaged in Syqe cartridges at room temperature; format: physicochemical; conditions: 25° C.±2° C., RH 60%±5%, baseline to 24 months; one-way ANOVA
# Protocol: (§4) In some embodiments, once cartridges are produced, they are stored, distributed and used at RT. In order to assess the shelf life of such cartridges, a long-term stability study was performed, during which cartridges were stored at 25° C.±2° C. (RH 60%±5%) in a calibrated and certified stability chamber (Memmert Constant climate chamber HPP260). 9, 6, 9, 8, 7, 4 and 4 separate growing batches were tested at baseline and after 3, 6, 9, 12, 18 and 24 months, respectively. At each time point samples of the ground inflorescence within the cartridges were analyzed for LOD and for the amount (mg) of each of the major phytocannabinoids (CBDA, CBD, CBGA, CBN, THCA and THC). Of the same batches, THC aerosolized by the Syqe inhaler was analyzed at baseline and at 6, 9, 18 and 24 months.
# as §1, §2, §3
# [4] = after four years, room temperature (22 C), light or darkness (storage conditions A and B); cited from earlier work
# [5] = THC dose aerosolized by the Syqe inhaler from stored cartridges; format: physicochemical; conditions: inhaler set to 500 μg THC, Mean±95% CI
# Protocol: Methods: MC inflorescences were ground to a fine powder and the concentrations of the major phytocannabinoids therein were analyzed at different time points using ultra-high performance liquid chromatography (U-HPLC). Storage was done under different temperature and humidity conditions, before or after being packaged in Syqe cartridges. MC aerosolized by a the Syqe inhaler using Syqe cartridges stored for up to 2 years at 25° C. was analyzed for THC doses.
# as §4
# In some embodiments, the Syqe inhaler is preprogrammed with several distinct heating protocols. […]
# [6] = Vaporization of THC and terpenes from ground cannabis heated to target temperatures; format: physicochemical; conditions: 135 mg ground cannabis; vaporized THC measured in the aerosol; targets 60-150° C.
# Protocol: The vaporization plots in FIGS. 6A-B show results of an experiment performed by the inventors in which samples of 135 mg of ground cannabis were heated to several target temperatures, including 60° C., 70° C., 80° C., 90° C., 100° C., 110° C., 120° C., 130° C., 140° C. and 150° C. At each of the target temperatures, vaporized THC was measured in the aerosol. At each of the target temperatures, the residual mass of ground cannabis was analyzed using Gas Chromatography —Mass Spectrometry (GC/MS) to determine existence of terpenes, such as: Linalool, Isopulegol, Geraniol, Caryophyllene, 26.82 Humulene<alpha->and Nerolidol. The total terpenes residue (as remaining in the ground cannabis) is indicated by the dashed line in FIG. 6A. Based on the residual mass of terpenes, the released (vaporized) amount terpenes was calculated, by subtracting the measured residual mass from a respective reference mass.
Structure (SMILES),change in phytocannabinoid amount [1],change in phytocannabinoid concentration during the study period [2],change in phytocannabinoid amount [3],THC degraded [4] [%],aerosolized THC dose ([5]; 6 months at 25° C.) [µg],aerosolized THC dose ([5]; BL) [µg],target temperature at which release started [6] [degrees C.]
"CCCCCc1cc(O)c(C/C=C(\C)CCC=C(C)C)c(O)c1C(=O)O [CBGA, cannabigerolic acid]",decreased significantly,no significant change,decreased significantly,,,,
"C=C(C)[C@@H]1CCC(C)=C[C@H]1c1c(O)cc(CCCCC)c(C(=O)O)c1O [CBDA, cannabidiolic acid]",,no significant change,no significant change,,,,
"CCCCCc1cc2c(c(O)c1C(=O)O)[C@@H]1C=C(C)CC[C@H]1C(C)(C)O2 (relative stereo) [THCA, (-)-Δ^9-trans-tetrahydrocannabinolic acid]",decreased significantly,no significant change,decreased significantly,,,,
"CCCCCc1cc(O)c2c(c1)OC(C)(C)c1ccc(C)cc1-2 [CBN, Cannabinol]",increased significantly,no significant change,increased significantly,,,,
"CCCCCc1cc(O)c2c(c1)OC(C)(C)[C@@H]1CCC(C)=C[C@@H]21 [THC, (-)-Δ^9-trans-tetrahydrocannabinol]",increased significantly,no significant change,increased significantly,~100,486.30 ± 50.56,484.76 ± 31.28,130
